Measured values: the supplement of paper PMC10307832

Legend:
Test in all cases: relative viability (nuclei count vs DMSO), 5 days (fraction); higher = more cells survive
[1] = compound: Cc1cnc(CNC(=O)c2c(=O)c3ccc(N4CCCN(C)CC4)nc3n3c2sc2ccccc23)cn1 [CX-5461] + CS(=O)(=O)CCNCc1ccc(-c2ccc3ncnc(Nc4ccc(OCc5cccc(F)c5)c(Cl)c4)c3c2)o1 [Lapatinib] (partner 2 µM)
How it was run: (§1)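 Lung cancer cell lines in 1536-well plates got either a single drug or a fixed anchor-drug dose together with five library-drug doses (not always all listed) in √10 steps, by pin tool, on the day after seeding. Nuclei were counted after 5 days, and relative viability is the treated-to-vehicle ratio of nuclei counts. Values are medians of duplicate plates.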

[2] = compound: O=C(Nc1cc(C(F)(F)F)cc(C(F)(F)F)c1)c1cc(Cl)ccc1O [IMD-0354] + Cc1cc(Nc2cc(N3CCN(C)CC3)nc(Sc3ccc(NC(=O)C4CC4)cc3)n2)n[nH]1 [Tozasertib] (partner 0.1 µM)
How it was run: as §1

[3] = compound: O=C(Nc1cc(C(F)(F)F)cc(C(F)(F)F)c1)c1cc(Cl)ccc1O [IMD-0354] + Cc1nc(NC(=O)N2CCC[C@H]2C(N)=O)sc1-c1ccnc(C(C)(C)C(F)(F)F)c1 [Alpelisib] (partner 2 µM)
How it was run: as §1

[4] = compound: O=C(Nc1cc(C(F)(F)F)cc(C(F)(F)F)c1)c1cc(Cl)ccc1O [IMD-0354] + O=C(c1cc(Cc2n[nH]c(=O)c3ccccc23)ccc1F)N1CCN(C(=O)C2CC2)CC1 [Olaparib] (partner 8 µM)
How it was run: as §1

Cell Line	relative viability ([1]; first compound 0.01 µM)	relative viability ([1]; first compound 0.03162 µM)	relative viability ([1]; first compound 0.1 µM)	relative viability ([1]; first compound 0.3162 µM)	relative viability ([1]; first compound 1 µM)	relative viability ([2]; first compound 0.04 µM)	relative viability ([2]; first compound 0.1265 µM)	relative viability ([2]; first compound 0.4 µM)	relative viability ([2]; first compound 1.265 µM)	relative viability ([2]; first compound 4 µM)	relative viability ([3]; first compound 0.04 µM)	relative viability ([3]; first compound 0.1265 µM)	relative viability ([3]; first compound 0.4 µM)	relative viability ([3]; first compound 1.265 µM)	relative viability ([3]; first compound 4 µM)	relative viability ([4]; first compound 0.04 µM)	relative viability ([4]; first compound 0.1265 µM)	relative viability ([4]; first compound 0.4 µM)	relative viability ([4]; first compound 1.265 µM)	relative viability ([4]; first compound 4 µM)
NCI-H1915	1.01	1.06	0.99	0.379	1.04	0.482	0.412	0.299	0.268	0.175	0.926	1.05	0.854	0.612	0.214	0.264	0.263	0.235	0.175	0.136
NCI-H1944	0.777	0.981	0.806	–	0.655	0.252	0.245	0.206	0.208	0.131	0.694	0.854	–	0.902	0.144	0.377	0.331	0.3	0.302	0.191
NCI-H1975	1.14	0.921	0.855	0.927	0.386	0.814	0.864	0.399	0.111	0.148	0.799	0.679	0.36	0.167	0.204	1.07	0.912	0.437	0.191	0.18
NCI-H1993	0.769	0.84	0.881	0.802	0.762	0.626	0.623	0.487	0.452	0.479	0.762	0.695	0.581	0.487	0.514	0.917	0.982	0.819	0.651	0.541
NCI-H2009	0.906	1.04	0.584	0.39	0.466	0.877	0.752	0.51	0.24	0.139	1.14	1.03	0.929	0.239	0.127	0.625	0.694	0.591	0.366	0.115
NCI-H2023	0.788	0.794	–	0.143	0.106	0.338	0.296	0.23	0.126	0.117	0.696	0.577	0.439	0.312	0.122	0.504	0.427	0.315	0.0756	0.183
NCI-H2085	0.806	0.718	0.667	0.324	0.615	0.941	0.797	0.681	0.459	0.405	0.899	0.888	0.764	0.492	0.269	0.785	0.795	0.713	0.412	0.377
NCI-H2087	1.13	1.18	1.18	0.407	0.507	0.273	0.228	0.167	0.167	0.126	1.04	0.938	0.329	0.136	0.131	0.517	0.457	0.207	0.0984	0.122
NCI-H2126	0.786	0.803	0.727	0.622	0.72	0.915	0.942	0.573	0.348	0.294	0.784	0.722	0.682	0.714	0.263	1	0.908	0.68	0.512	0.364
NCI-H2170	0.305	0.261	0.283	0.207	0.296	0.788	0.779	0.377	0.624	0.226	0.752	0.785	0.603	0.835	0.373	0.531	0.647	0.421	0.561	0.185
NCI-H2228	1.13	0.764	0.473	0.668	0.166	0.181	0.256	0.275	0.185	0.175	0.686	0.738	0.631	0.263	0.182	0.888	0.586	0.482	0.274	0.172
NCI-H2347	0.941	0.931	0.963	0.524	0.778	0.767	0.513	0.563	0.505	0.233	1.05	1.12	0.772	0.498	0.37	0.606	0.64	0.49	0.377	0.265
NCI-H2405	1.18	1.07	1.18	0.541	0.808	0.742	0.727	0.732	0.346	0.322	0.961	0.835	0.609	0.306	0.163	0.905	0.866	0.491	0.258	0.258
NCI-H3122	1.01	0.992	0.897	1	0.854	0.468	0.421	0.248	0.139	0.119	0.845	0.917	0.365	0.271	0.163	0.461	0.633	0.417	0.509	0.137
PC-3 [JPC-3]	0.453	0.443	0.464	0.421	0.473	1	0.707	0.572	0.567	0.312	1.1	1.04	0.714	0.774	0.183	1.25	1.16	0.839	0.374	0.38
PC-14	0.328	0.457	0.304	0.104	0.337	0.675	0.61	0.353	0.312	0.076	1.13	0.681	0.587	0.525	0.219	0.223	0.276	0.269	0.0804	0.126
RERF-LC-KJ	0.785	0.701	0.877	0.637	0.765	0.565	0.644	0.411	0.274	0.265	0.823	0.71	0.586	0.404	0.303	1.08	0.969	0.415	0.169	0.229
SK-LU-1	0.948	0.837	0.852	0.96	0.535	0.308	0.349	0.304	0.2	0.189	1.39	0.658	0.472	0.174	0.215	0.481	0.395	0.325	0.265	0.205
SK-MES-1	0.431	0.474	0.454	0.512	0.403	1.14	0.873	0.543	0.287	0.215	0.976	0.834	0.598	0.283	0.285	0.894	0.643	0.312	0.19	0.226
SW 1573	1.2	1.26	0.989	0.691	0.546	0.182	0.16	0.175	0.0971	0.0737	0.768	0.788	0.328	0.202	0.15	0.537	0.467	0.264	0.0858	0.0862
